Measured values reported in ChEMBL document CHEMBL1125999 (Bioorg Med Chem Lett, 1991).

How the values were obtained:
D(2) dopamine receptor = D(2) dopamine receptor (Bos taurus, UniProt P20288); test: In vitro binding affinity towards Dopamine D2 receptor using [3H]spiperone as radioligand
D(1A) dopamine receptor = D(1A) dopamine receptor (Bos taurus, UniProt Q95136); test: In vitro binding affinity towards Dopamine D1 receptor using [3H]-SCH- 23390 as radioligand
[1] = Dissociation constant was evaluated; format: physicochemical

D(2) dopamine receptor, sequence (P20288 whole entry): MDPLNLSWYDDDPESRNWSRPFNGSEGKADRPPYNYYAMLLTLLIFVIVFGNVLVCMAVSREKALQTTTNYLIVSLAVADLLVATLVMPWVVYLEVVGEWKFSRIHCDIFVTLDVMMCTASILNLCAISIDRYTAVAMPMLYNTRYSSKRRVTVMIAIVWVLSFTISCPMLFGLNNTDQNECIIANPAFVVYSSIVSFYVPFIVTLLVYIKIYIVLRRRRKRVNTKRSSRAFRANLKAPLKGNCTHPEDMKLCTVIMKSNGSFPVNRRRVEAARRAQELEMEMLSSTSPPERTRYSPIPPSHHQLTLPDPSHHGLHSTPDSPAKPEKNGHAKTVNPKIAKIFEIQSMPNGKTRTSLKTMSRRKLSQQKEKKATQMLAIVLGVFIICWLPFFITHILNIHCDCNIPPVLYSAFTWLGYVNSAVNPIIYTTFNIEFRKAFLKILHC
D(1A) dopamine receptor, sequence (Q95136 whole entry): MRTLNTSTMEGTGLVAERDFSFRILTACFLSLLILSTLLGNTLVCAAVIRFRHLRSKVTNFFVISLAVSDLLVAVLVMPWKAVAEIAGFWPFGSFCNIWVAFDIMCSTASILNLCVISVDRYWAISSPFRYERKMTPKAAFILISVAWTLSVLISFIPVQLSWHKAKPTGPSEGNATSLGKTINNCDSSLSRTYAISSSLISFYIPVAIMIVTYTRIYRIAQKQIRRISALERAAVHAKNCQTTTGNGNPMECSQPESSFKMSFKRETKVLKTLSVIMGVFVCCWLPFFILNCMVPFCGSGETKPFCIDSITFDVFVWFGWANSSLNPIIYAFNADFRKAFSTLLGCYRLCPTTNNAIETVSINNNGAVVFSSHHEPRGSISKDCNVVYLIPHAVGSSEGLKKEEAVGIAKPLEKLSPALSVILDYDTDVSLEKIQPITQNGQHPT

Row | SMILES | IC50 (D(2) dopamine receptor) | IC50 (D(1A) dopamine receptor) | pKa [1]
1 | CCCN(CCC)CCc1ccc(NC(=O)C(F)(F)F)c(NC(=O)C(F)(F)F)c1 | > 100 µM | > 100 µM | 
2 | CCCN(CCC)CCc1ccc2nn[nH]c2c1 | 50 µM | > 100 µM | 
3 | CCCN(CCC)CCc1ccc(NC(C)=O)c(NC(C)=O)c1 | > 100 µM | > 100 µM | 
4 | CCCN(CCC)CCc1ccc2[nH]c(O)nc2c1 | > 100 µM | > 100 µM | 
5 | CCCN(CCC)CCc1ccc2[nH]c(S)nc2c1 | 1 µM | > 100 µM | 9.8
6 | CCCN(CCC)CCc1ccc2[nH]c(=O)c(=O)[nH]c2c1 | 3 µM | > 100 µM | 9.5
7 | NCCc1ccc(O)c(O)c1 [DOPAMINE] |  | 0.2 µM | 
